# How the values were obtained:
# [1] = test system: human embryonic stem cells line H1; assay: Definitive endoderm differentiation of H1 cells, single cell seeding (activin A/WNT-3a): real-time PCR gene expression; assay type: cell-based; conditions: BSA medium
# Method: (§1) Cells of the human embryonic stem cells line H1 (p40-p52) were seeded as single cells at a density of 100000 cells/cm^2 on MATRIGEL® (1:30 dilution) (BD Biosciences; Cat #356231)-coated dishes in MEF-CM (mouse embryonic fibroblast conditioned media) supplemented with 16 ng/ml of FGF2 (Catalog#100-18B, PeproTech, NJ) and 10 μM of Y27632 (Rock inhibitor, Catalogue#Y0503, Sigma, Mo.). 72 hrs post seeding, cultures were differentiated into definitive endoderm (DE) as follows: • a. MCDB-131 (Catalogue#10372-019, Invitrogen, CA) medium supplemented with 2% fatty acid-free BSA (Catalog#68700, Proliant, IA), 0.0025 g/ml sodium bicarbonate (Catalogue #S3187, Sigma, Mo.), 1× GlutaMax™ (Catalogue #35050-079, Invitrogen, Ca) and 100 ng/ml activin A (R&D Systems, MN) plus 20 ng/ml WNT-3a (Catalog#1324-WN-002, R&D Systems, MN) for one day, then • b. MCDB-131 medium supplemented with 2% BSA, sodium bicarbonate, Glutamax, and 100 ng/ml activin A for an additional three days.
# (§2) In some of the cultures, the cells were treated with the following concentrations of insulin (Catalogue#19278, Sigma, Mo.): 0, 1, 10, 100, 1000, or 10000 ng/ml. At day 4, samples were collected for FACS and gene expression analysis using real-time PCR.
# [2] = test system: human embryonic stem cells line H1; assay: Definitive endoderm differentiation of H1 cells, cluster seeding (activin A/WNT-3a, RPMI): FACS for CXCR4 and CD9; assay type: cell-based; conditions: for % CXCR4 + CD9− / % CXCR4 − CD9+ / % CXCR4 − CD9−: cluster seeding, day 4
# Method: Cells of the human embryonic stem cells line H1 (p40-p52) were cultured on […]® (1:30 dilution) (BD Biosciences; Cat #356231)-coated dishes in MEF-CM (mouse embryonic fibroblast conditioned media) supplemented with 16 ng/ml of FGF2 (Catalog#100-18B, PeproTech, NJ), and differentiated into cells expressing markers characteristic of the definitive endoderm lineage as follows: • a. RPMI medium supplemented with 2% fatty acid-free BSA (Catalog#68700, Proliant, IA), and 100 ng/ml activin A (R&D Systems, MN) plus 20 ng/ml WNT-3a (Catalog#1324-WN-002, R&D Systems, MN) for one day, then • b. RPMI medium supplemented with 2% BSA and 100 ng/ml activin A for an additional three days.
# […] ITS-X is a serum replacement supplemented comprised of 1 mg/ml of Insulin, 0.55 mg/ml of Transferrin, 0.00067 mg/ml of Sodium Selenite, […] As a control, 0.2% FBS (Catalogue#SH30070.03, Hyclone, UT) was used for day 1 of differentiation, 0.5% FBS at day 2 and 2% FBS was used for days 3-4. The FBS treated cultures were not supplemented with ITS-X.
# At day 4, samples were collected for FACS and gene expression analysis using real-time PCR.
# The cell surface receptor CXCR4 has been previously shown to be a marker of definitive endoderm. CD9 is a marker for undifferentiated ES cells. Consequently, an increase in the expression of CXCR4, and a decrease in the expression of CD9 in a population of cells is indicative for the formation of definitive endoderm.
# [3] = test system: human embryonic stem cells line H1; assay: Definitive endoderm differentiation of H1 cells, single cell seeding (activin A/WNT-3a, MCDB-131): FACS for CXCR4 and CD9; assay type: cell-based; conditions: for % CXCR4 + CD9− / % CXCR4 − CD9+ / % CXCR4 − CD9−: single cell seeding, day 4
# Method: as §1, §2
# FIG. 5 depicts the CXCR4 and CD9 expression profile of the various treatments as measured by FACS analysis.
# ES cells = conditions: 200 ng/ml of insulin added to 2% FBS, MEF-CM, activin A; cited from earlier work
# [4] = test system: human embryonic stem cells line H1; assay: Definitive endoderm differentiation of H1 cells, cluster seeding: real-time PCR gene expression; assay type: cell-based; conditions: 1-100 ng/ml of insulin, BSA medium, day 4, real-time PCR
# Method: Cells of the human embryonic stem cells line H1 (p40-p52) were cultured on MATRIGEL® (1:30 dilution) (BD Biosciences; Cat #356231)-coated dishes in MEF-CM (mouse embryonic fibroblast conditioned media) supplemented with 16 ng/ml of FGF2 (Catalog#100-18B, PeproTech, NJ), and differentiated into cells expressing markers characteristic of the definitive endoderm lineage as follows: • a. RPMI medium supplemented with 2% fatty acid-free BSA (Catalog#68700, Proliant, IA), and 100 ng/ml activin A (R&D Systems, MN) plus 20 ng/ml WNT-3a (Catalog#1324-WN-002, R&D Systems, MN) for one day, then • b. RPMI medium supplemented with 2% BSA and 100 ng/ml activin A for an additional three days.
# In some of the cultures, the cells were treated with the following dilution of ITS-X (Catalogue#51500-056, Invitrogen, CA): 0, 1:10^6, 1:5×10^5, 1:10^5, 1:10^4. ITS-X is a serum replacement supplemented comprised of 1 mg/ml of Insulin, 0.55 mg/ml of Transferrin, 0.00067 mg/ml of Sodium Selenite, and 0.2 mg/ml of Ethanolamine The range of dilutions of ITS-X correspond to 0, 1 ng/ml, 2 ng/ml, 10 ng/ml, and 100 ng/ml of insulin. As a control, 0.2% FBS (Catalogue#SH30070.03, Hyclone, UT) was used for day 1 of differentiation, 0.5% FBS at day 2 and 2% FBS was used for days 3-4. The FBS treated cultures were not supplemented with ITS-X. […]
# [5] = BSA + 100 ng/ml insulin (ITS-X)
# [6] = super physiological insulin (1-10 μg/ml), BSA medium
substance,measurement,setting,value
insulin,"expression of markers associated with definitive endoderm (FOXA2, SOX17, CER1, CXCR4)","[1]; 1-100 ng/ml insulin, day 4",did not significantly affect
same,expression of NANOG,[1]; 1-10 μg/ml of insulin,did increase expression
same,% CXCR4 + CD9−,[2]; BSA + 1 ng/ml insulin (ITS-X),70%
same,% CXCR4 − CD9+,[2]; BSA + 1 ng/ml insulin (ITS-X),13%
same,% CXCR4 − CD9−,[2]; BSA + 1 ng/ml insulin (ITS-X),10%
same,% CXCR4 + CD9−,[2]; BSA + 5 ng/ml insulin (ITS-X),67%
same,% CXCR4 − CD9+,[2]; BSA + 5 ng/ml insulin (ITS-X),15%
same,% CXCR4 − CD9−,[2]; BSA + 5 ng/ml insulin (ITS-X),12%
same,% CXCR4 + CD9−,[2]; BSA + 10 ng/ml insulin (ITS-X),69%
same,% CXCR4 − CD9+,[2]; BSA + 10 ng/ml insulin (ITS-X),13%
same,% CXCR4 − CD9−,[2]; BSA + 10 ng/ml insulin (ITS-X),13%
same,% CXCR4 + CD9−,[2]; [5],73%
same,% CXCR4 − CD9+,[2]; [5],12%
same,% CXCR4 − CD9−,[2]; [5],9%
same,"expression of CXCR4, or CD9","[2]; BSA medium, any concentration of insulin tested, FACS",no significant change
same,% CXCR4 + CD9−,[3]; BSA + 1 ng/ml insulin,96%
same,% CXCR4 − CD9+,[3]; BSA + 1 ng/ml insulin,1.5%
same,% CXCR4 − CD9−,[3]; BSA + 1 ng/ml insulin,0.7%
same,% CXCR4 + CD9−,[3]; BSA + 10 ng/ml insulin,95%
same,% CXCR4 − CD9+,[3]; BSA + 10 ng/ml insulin,1.4%
same,% CXCR4 − CD9−,[3]; BSA + 10 ng/ml insulin,0.7%
same,% CXCR4 + CD9−,[3]; BSA + 100 ng/ml insulin,90%
same,% CXCR4 − CD9+,[3]; BSA + 100 ng/ml insulin,4.1%
same,% CXCR4 − CD9−,[3]; BSA + 100 ng/ml insulin,2%
same,% CXCR4 + CD9−,[3]; BSA + 1 μg/ml insulin,90%
same,% CXCR4 − CD9+,[3]; BSA + 1 μg/ml insulin,3.6%
same,% CXCR4 − CD9−,[3]; BSA + 1 μg/ml insulin,2.2%
same,% CXCR4 + CD9−,[3]; BSA + 10 μg/ml insulin,84%
same,% CXCR4 − CD9+,[3]; BSA + 10 μg/ml insulin,6.6%
same,% CXCR4 − CD9−,[3]; BSA + 10 μg/ml insulin,4.7%
same,CXCR4−CD9+ fraction,[3]; [6],increase in expression
same,percentage of CXCR4+CD9− cells,[3]; [6],decrease in the percentage
same,decrease of the expression of SOX17,ES cells,approximately 70%
same,"expression of markers of definitive endoderm (FOXA2, SOX17, CXCR4), mesenchyme (T), extraembryonic (SOX7, AFP)",[4],did not significantly affect

# From patent US9528090B2, “Differentiation of human embryonic stem cells” (Janssen Biotech, Inc., priority 2010, dated 2016)
